Experimental findings from patent US9162979B2, “1,5-Diary1-2-alkylpyrrole-3-substituted nitro esters, selective COX-2 inhibitors and nitric oxide donors” (ROTTAPHARM BIOTECH S.R.L., priority 2010, dated 2015) are described below.

Series [1] has as its system mouse abdominal contraction (writhing) induced by acetic acid. Kind of series: Abdominal constriction test induced by acetic acid. In kind it is in vivo. On the procedure:
(§1) Male Swiss albino mice (23-25 g) and Wistar rats (150-200 g) were used.
The antinociceptive activity was determined by the mouse abdominal contraction test using acetic acid (0.6%), which induces writhing, according to Koster's method (Fed. Proc., 1959, 18, 412-418). The number of stretching movements was counted for 10 minutes, starting 5 minutes after injection of acetic acid. The results relating to analgesic activity in the abdominal constriction test with representative compounds of the invention are shown in Table 10.
The test was carried out using 10 animals in the treated group and 20 in the control group (CMC); all the compounds were administered per os with the exception of the compound of Example 8, which was administered i.p.

Series [2] relates to isolated rings of thoracic aorta. Kind of series: Evaluation of release of NO: vasorelaxing activity on endothelium-denuded aortic rings contracted with KCl. On the set-up: species or system rat; key to NO release properties Emax (maximum vasorelaxing effect) / NO release properties pIC50 (vasorelaxing potency): S.E: Scarcely Effective: it is not possible to detect NO release comparable to the other compounds mentioned here. The note with it: for IC50 / Emax: Rattus norvegicus; for IC50: concentration reducing contractile tone induced by 20 mM KCl by half, read-out: NO release properties pIC50 (vasorelaxing potency) (converted); for Emax: read-out: NO release properties Emax (maximum vasorelaxing effect). A digest of the protocol:
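Endothelium-denuded male Wistar rat thoracic aorta rings (2 g preload, Tyrode, 37 °C, 95% O2/5% CO2) precontracted with 20 mM KCl, then given cumulative test compound (1 nM–10 μM). Relaxation as % of KCl tone; Emax and pIC50 reported as mean±SE of 5–10 experiments. Also repeated with 1 μM ODQ.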

The target of the next series is COX-2 (Mus musculus (Mouse), UniProt Q05769). Kind of series: Evaluation of COX-2 activity: PGE2 production in LPS-stimulated J774 cells. In kind it is cell-based, murine. Conditions: J774 cells stimulated 24 hours with LPS 10 μg/mL; PGE2 by radio-immunological assay; read-out: Cyclooxygenase inhibition COX-2 IC50. A digest of the protocol:
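Murine J774 macrophages switched to serum-free medium before stimulation; PGE2 in supernatants measured by radioimmunoassay, triplicate wells per condition. IC50 with 95% intervals from sigmoidal variable-slope dose-response fit.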

In series [3] the test system is rat liver homogenate. As to the kind of experiment: Evaluation of release of nitrites in hepatic homogenate. Conditions: for Maximum release (%): nitrite after 4 hours, 1 mM, 37° C., as percentage of SNP.
Description: (§3) By evaluating the time-dependent increase in nitrite concentrations in the liver homogenate, it was possible to extrapolate two descriptive parameters:
(§4) Time (in minutes) required for an amount of nitrite to be released by the test compound equal to half its maximum release.
Series [4] deals with rat liver homogenate. The note with it: 1 mM.
Description: as §3, §4
Series [5] has as its system rat paw oedema induced by carrageenan. Kind of series: Volume of oedema test (carrageenan). In kind it is in vivo. On the procedure:
The rat paw volumes were measured using a pletismometer. Four hours after injecting carrageenan 1.0% (0.1 ml injection), the volume of the right hind-paw was measured and compared with that of controls treated with a saline/carrageenan solution. The rats were administered the test compounds 3.5 hours after the carrageenan. The results are given as paw volume expressed in ml. The results relating to the analgesic and anti-oedemic activity in the carrageenan test for some representative compounds of the invention are shown in Table 11.
(§2) The test was performed using 6 animals per group, all the compounds were administered per os, 30 min before the test. The carrageenan is administered 2 h before the test.

Series [6] has as its system carrageenan-induced inflammatory state in the rat. As to the kind of experiment: Carrageenan test: nociceptive threshold (weight supported). The class given is in vivo. Conditions: for Weight supported (g) Before treatment: baseline before treatment. On the procedure:
as §1
The nociceptive threshold in the rat was determined with an analgesiometer, as described by Leighton et al. (Br. J. Pharmacol., 1988, 93, 553-560), the pressure was measured before the treatment and after 30 and 60 min. To reproduce the inflammatory state in the rat, carrageenan was administered i.p. (0.1 ml, 1%) 4 h before the test.
as §2

[7] abbreviates: relative to contractile tone induced by 20 mM KCl, 1 nM-10 μM.

COX-2, sequence (Q05769 18-604): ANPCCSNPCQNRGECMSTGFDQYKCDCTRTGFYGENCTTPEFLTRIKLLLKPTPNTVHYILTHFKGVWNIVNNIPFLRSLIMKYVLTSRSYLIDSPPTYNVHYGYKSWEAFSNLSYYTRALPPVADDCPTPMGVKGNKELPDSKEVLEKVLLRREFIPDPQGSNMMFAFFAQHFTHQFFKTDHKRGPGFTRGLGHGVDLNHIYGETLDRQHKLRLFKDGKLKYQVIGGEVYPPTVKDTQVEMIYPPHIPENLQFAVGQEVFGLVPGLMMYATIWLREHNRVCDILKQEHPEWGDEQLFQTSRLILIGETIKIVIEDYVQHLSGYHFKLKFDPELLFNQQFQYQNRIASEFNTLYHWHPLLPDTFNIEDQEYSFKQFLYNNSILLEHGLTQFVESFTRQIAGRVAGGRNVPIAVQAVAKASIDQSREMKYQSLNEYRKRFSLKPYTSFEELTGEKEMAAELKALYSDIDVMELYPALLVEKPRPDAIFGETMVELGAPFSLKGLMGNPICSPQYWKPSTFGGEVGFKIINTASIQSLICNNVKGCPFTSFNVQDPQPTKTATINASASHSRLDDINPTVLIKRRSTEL

In series [1] (40 mg/kg per os), `Cc1c(CCOCCO[N+](=O)[O-])cc(-c2ccc(S(C)(=O)=O)cc2)n1-c1cccc(F)c1` [Example 38, 2-[2-[2-(1-(3-Fluorophenyl)-2-methyl-5-(4-methylsulphonylphenyl)-1H-pyrrol-3-yl]ethoxy]ethyl Nitrate] displayed a N writhes of 25.3 ± 3.6. Further, the IC50 in series [2] was 4.79 µM; on COX-2, 0.028 µM. The Emax in series [2] (setting [7]) was 60 ± 4%. For the same compound, the “Maximum release (%)” value in the series with rat liver homogenate [3] is listed as 28 ± 3%. In the series with rat liver homogenate [4], the “T ½” value is 1.01 ± 0.145 h.
On to `COc1ccc2cc([C@H](C)C(=O)OCCCCO[N+](=O)[O-])ccc2c1` [Naproxcinod, naproxcinod, reference compound], for which, in series [2], the IC50 is 5.25 µM. The Emax in series [2] (setting [7]) is 62 ± 4%. The “Oedema Volume” value in series [5] (10 mg/kg per os) is 1.95 ± 0.07 mL. In addition, in series [5] (30 mg/kg per os), the “Oedema Volume” value worked out at 1.88 ± 0.07 mL. Also, the “course of nitrite release” value in the series with rat liver homogenate [3] (incubation in rat liver homogenate) is on record as “very rapid, slight release of nitrites”. For the same compound, in the series with rat liver homogenate [3], the “Maximum release (%)” value was found to be 20 ± 1 %. Besides, in the series on rat liver homogenate [4], the “T ½” value amounted to 0.143 ± 0.0483 h. In addition, in series [6] (10 mg/kg per os), the “Weight supported (g) After treatment 30 min” value came to 47.9 ± 3.5 g, the “Weight supported (g) After treatment 60 min” value is listed as 46.2 ± 3.8 g and the “Weight supported (g) Before treatment” value is reported as 33.5 ± 3.7 g. Also, in series [6] (30 mg/kg per os), the “Weight supported (g) After treatment 30 min” value was found to be 48.2 ± 2.8 g, the “Weight supported (g) After treatment 60 min” value is reported as 43.9 ± 3.7 g and the “Weight supported (g) Before treatment” value was determined as 32.7 ± 3.8 g.
Compound `Cc1c(CCOCCO[N+](=O)[O-])cc(-c2ccc(S(C)(=O)=O)cc2)n1-c1ccc(F)c(F)c1` [Example 39, 2-[2-[2-(1-(3,4-Difluorophenyl)-2-methyl-5-(4-methylsulphonylphenyl)-1H-pyrrol-3-yl]ethoxy]ethyl Nitrate] had a N writhes in series [1] (20 mg/kg per os) of 26.3 ± 3.4. For the same compound, the Emax in series [2] (setting [7]) is 43 ± 6%. In addition, on COX-2, the IC50 came out at 0.92 µM. Besides, the “Maximum release (%)” value in the series on rat liver homogenate [3] is listed as 30 ± 1%. Moreover, the “T ½” value in the series with rat liver homogenate [4] is 1.14 ± 0.142 h.
For the compound `Cc1c(CCOCCCO[N+](=O)[O-])cc(-c2ccc(S(C)(=O)=O)cc2)n1-c1cccc(F)c1` [Example 42, 3-[2-(1-(3-Fluorophenyl)-2-methyl-5-(4-methylsulphonylphenyl)-1H-pyrrol-3-yl)ethoxy]propyl Nitrate], the “NO release properties Emax (maximum vasorelaxing effect)” value in series [2] (setting [7]) is “S.E”. Besides, the IC50 at COX-2 stood at 0.43 µM. For the same compound, the “Maximum release (%)” value with rat liver homogenate [3] turned out to be 52 ± 8%. For the same compound, in the series with rat liver homogenate [4], the “T ½” value worked out at 1.41 ± 0.198 h.
With `Cc1c(CC(=O)OCCO[N+](=O)[O-])cc(-c2ccc(S(C)(=O)=O)cc2)n1-c1ccc(F)cc1` [Example 2, 2-(Nitrooxy)ethyl-2-[(1-(4-fluorophenyl)-2-methyl-5-(4-(methylsulphonyl)phenyl)-1H-pyrrol-3-yl)]acetate], the IC50 in series [2] is 3.47 µM. Moreover, the maximal response (Emax) in series [2] (setting [7]) came out at 58 ± 5%. For the same compound, the “Maximum release (%)” value in the series with rat liver homogenate [3] stood at 26 ± 7%. In addition, the “T ½” value in the series on rat liver homogenate [4] was determined as 1.14 ± 0.208 h.

Usually Emax stands for the size of the effect at its maximum, as opposed to the concentration needed.
